The term melting point denotes the temperature, or range, at which the solid turns liquid. `C[C@H]1CN(c2ccc(C(F)(F)F)c(Cl)n2)CCN1C(=O)OC(C)(C)C` displayed a melting point of 86 °C.
The molecule `O=C(NCCn1ccccc1=O)c1cccnc1` displayed a melting point of 158 to 159 °C.
Molecule `CN(C)CCCOc1ccc(C[C@H](NC(=O)[C@@H]2CCCN2S(=O)(=O)c2cccs2)C(=O)O)cc1` gave a melting point of over 200 °C.
`CC(=O)Nc1ccc(CCC(=O)O)cc1` had a melting point of 127 to 138 °C.
As for `C=CCN(C(=O)OCc1ccccc1)c1cc(F)c(-c2cccnc2)c(F)c1`, the figure is 92 to 93 °C; as for `FC(F)(F)c1ccccc1NC(=S)N1CCc2c(sc3c2C(c2ccccc2Cl)=NCc2nnc(Cc4ccccc4)n2-3)C1`, 239 to 240 °C.
The value for `CC(C)(C)OC(=O)NCC(=O)c1ccc(OCc2ccccc2)cc1` was 75 to 76 °C; that for `Cc1c[nH]c(-c2c(Cl)cc(C(F)(F)F)cc2Cl)n1` was 211 to 212 °C.
As for `Oc1ccc(C2COC(c3c(F)cccc3F)=N2)cc1` (configuration not stated), the figure is 145 to 147 °C.
Molecule `C1=Cc2c3c(ccc2=N1)=CC=N3` showed a melting point of 201 to 205 °C.
As for `CN1CCC(c2ccc(OC(C)(C)CO)cc2)c2ccccc21` (configuration not stated), the figure is 92 to 94 °C.
The value for `Cc1cc(Nc2ccc(Cl)c(Cl)c2)nc(-n2nc(C)cc2C)n1` was 135 to 138 °C; that for `CN(C)c1nc(=O)c2ccccc2n1Cc1ccc(F)cc1` was 160 to 169 °C.
The value for `COc1ccc(C(=O)Nc2ccccc2)cc1NC(=O)CC(=O)OCc1ccccc1` was 168 to 171 °C; that for `N#Cc1ccc(NC(=O)Nc2cccc(C#N)c2)cc1` was 183 to 185 °C; that for `O=c1c2cc(Cl)ccc2ncn1CCCN1CCC(c2c[nH]c3ccccc23)CC1` was 138 °C.
In turn, `N#CSCSc1nc(Cl)c(Cl)nc1Cl` returned a melting point of 90 to 93 °C.
In turn, `CS(=O)(=O)Nc1ccncc1-c1ccc2cnc(Nc3ccc(N4CCOCC4)cc3)nn12` yielded a melting point of 178 to 180 °C.
`CCOC(=O)c1[nH]c2c(c1C)CC1CN(CC)CCC1(c1cccc(O)c1)C2` (configuration not stated) gave a melting point of 195 to 197 °C.
Regarding `CS(=O)(=O)c1ccc2nc(N)[nH]c2c1`, the melting point was 233 to 238 °C.
In turn, `COc1cc(OC)nc(NC(=O)NS(=O)(=O)c2cc(N)ccc2C(=O)N(C)C)n1` came in with a melting point of 192 to 193 °C.
`COc1ccc(-c2cccc(NC(C)=O)c2)cc1OC1CCCC1` returned a melting point of 112 to 114 °C.
The value for `Cn1c(=O)nc(N)c2ccccc21` was 252 to 262 °C; that for `CC(C)(CF)C(O)C(Oc1ccc(Cl)cc1)n1cncn1` (configuration not stated) was 103 to 112 °C; that for `CC(C)(C)C(O)(Cn1cncn1)C1CCC1` (configuration not stated) was 94 to 99.5 °C.
As for `CC(O)(c1ccc(Oc2ccccc2)cc1)c1cccnc1` (configuration not stated), the figure is 130 to 132 °C; as for `CC(=O)Nc1ccc(-c2cc(C(=O)c3ccc(Cl)cc3Cl)sc2N2CCOCC2)cc1`, 145 °C; as for `COc1cccc(N2CCN(c3cc4c(cc3F)ncc3c4c(=O)c(C(=O)O)cn3C)CC2C)c1` (configuration not stated), 285 °C.
The value for `NNc1nccc(-c2ccc(OC3CCOCC3)c(Cl)c2)c1Cl` was 173 °C; that for `O=S(=O)(CCCN1CCN(c2ncc(F)cn2)CC1)c1ccc(F)cc1` was 132 to 134 °C.
For `CCCCCCCCCCOC(=O)c1nc(-c2ccc(Cl)cc2)c(F)c(N)c1Cl`, the melting point was 62 to 63 °C.
As for `CC(C)(c1ccccc1)N1CCC(=O)C(c2ccccc2)C1=O` (configuration not stated), the figure is 129 to 132 °C.
The value for `CC(S)C(=O)NCc1noc(C(C)c2ccc(-c3ccccc3)c(F)c2)n1` (configuration not stated) was 94 to 95 °C; that for `Fc1cc(F)cc(Cn2c(S)nc3ccccc32)c1` was 179 to 180 °C; that for `O=C(CNCc1ccccc1)CP(=O)(O)C(Cl)(Cl)Cl` was 194 to 195 °C.
Turning to `O=C1NC(=O)c2c1cc1ccc3c(c1c2-c1ccc(Br)cc1)OCO3`, the melting point fell in the range of 324 to 327 °C.
The value for `N#CCC(=O)Nc1ccc(-c2ncn(-c3ccc(OC(F)(F)F)cc3)n2)cc1` was 250 to 252 °C; that for `CC(=O)n1c(SC(F)(F)F)cc(-c2ccc(F)cc2)c1-c1ccc(F)cc1` was 75 to 76 °C.
The value for `O=CC=CC=CC=CC=Cc1ccsc1` was 156 to 158 °C; that for `CN1Cc2c(Cl)cc(F)c(-n3c(=O)cc(C(F)(F)F)n(C)c3=O)c2O1` was 218 to 219 °C.
For the molecule `COc1ccc(S(=O)(=O)C(C)(Cc2ccc(OCCCN3CCN(c4cccc(Cl)c4)CC3)cc2)C(=O)NO)cc1` (configuration not stated), the melting point is 122 °C.
As for `COCCOc1cc2c(cc1-c1ccc(F)cc1)NC(=O)CC(c1cccc(-n3ccnc3)c1)=N2`, the figure is 196 to 197 °C.
With `CC(N)(C=CP(=O)(O)O)CCCc1ccc(Sc2cccc(OCc3ccccc3)c2)cc1Cl` (configuration not stated), the melting point was in the range of 243 to 245 °C.
As to `Cc1ccc(I)c(CC(=O)OC(C)C)c1`, the melting point fell in the range of 48 to 50 °C.
Turning to `CC(C)(C)c1nn(-c2c(Cl)cc(C(F)(F)F)cc2Cl)c(Br)c1[N+](=O)[O-]`, the melting point lay in the range of 105 to 108 °C.
The value for `N#CCCn1ccc(NC(N)=NCC(F)(F)F)n1` was 141 to 142 °C.
As for `O=C(O)CCc1cccc(Oc2ccccc2Cl)c1O`, the figure is 90 to 92 °C.
As for `CC(c1oc2ccccc2c(=O)c1-c1cccc(F)c1)n1nc(-c2ccc(Oc3ccccc3)cc2)c2c(N)ncnc21` (configuration not stated), the figure is 218 to 220 °C.
`O=c1c2cc(O)ccc2nc(CSc2ncnc3[nH]cnc23)n1-c1ccccc1Cl` displayed a melting point of 186 to 214 °C.
The value for `O=[N+]([O-])c1ccc(N2CCC(Nc3ncnc4c3ncn4[C@@H]3C[C@H](CO)[C@@H](O)[C@H]3O)C2)cc1` (some centres not stated) was 119 to 120 °C; that for `COC(=O)c1c[nH]c(CCC2CNc3nc(NC(=O)C(C)(C)C)nc(O)c3C2)c1` (configuration not stated) was over 260 °C; that for `Nc1cc(=O)n(CCC2=CCCCC2)c(=O)n1CCC1=CCCCC1` was 172 to 174 °C.
Regarding `COC(=O)C(c1ccccc1)N1CCN(c2ccc([N+](=O)[O-])cc2)CC1` (configuration not stated), the melting point is 92 °C.
With `CC(=O)C1=C(C)NC(C)=C(C(=O)CCCCCCCN2CCC(c3ccccc3)(c3ccccc3)CC2)C1c1cccc([N+](=O)[O-])c1` (configuration not stated), the melting point was in the range of 141 to 145 °C.
In the case of `O=C(c1ccccc1)c1c[nH]c2cnccc12`, the melting point lay within 218 to 220 °C.
As to `CC(C)(C)CCN1C(=O)C(NC(=O)Oc2ccccc2)C(=O)N(c2ccccc2)c2ccccc21` (configuration not stated), the melting point is 170 to 172 °C.
With `CCNC(=O)c1ccc(N2CCN(Cc3cnc4c(c3)NC(=O)C3CCCCN43)CC2)cc1` (configuration not stated), the melting point was found to be 233 °C.
`CC(C)(C)C(=O)Nc1nc(O)c2c(n1)NCC(CO)C2` (configuration not stated) showed a melting point of 236 to 238 °C.
The value for `COc1ccc(C(=O)Cc2ccccc2)cc1OC1CCCC1` was 117 to 119 °C; that for `COc1cc(-n2cnc(C)c2C)cc2oc(=O)c(C)c(C)c12` was 196 to 198 °C.
As for `CC(C)n1nc(O)ccc1=O`, the figure is 148 °C.
The value for `Cc1ccnc(N2C(=S)SCC2(C)O)c1` (configuration not stated) was 119 °C; that for `COc1ccc(-c2ccc(C#N)cc2C(F)(F)F)cc1C=O` was 116 to 118 °C; that for `CCCCCCCOc1c(C)cc2[nH]c(S(=O)Cc3ncc(C)c(OC)c3C)nc2c1C` (configuration not stated) was 116 °C.
`CN1C(=O)C(=O)N(Cc2ccccc2)CC1(CCOC1CCCCO1)c1ccc(Cl)c(Cl)c1` (configuration not stated): the melting point was found to be 178 °C.
The value for `COc1cc(C(=O)N(C(C)C)C2CCCCC2)ccc1Cn1cccc2nc(C)nc1-2` was 218 to 221 °C; that for `CC(=O)Nc1ccc(/C(=C/N2CCOCC2)C(=S)N2CCOCC2)cc1` was 145 to 147 °C.
The value for `O=C(O)C=c1sc2n(c1=O)Cc1ccccc1N=2` was 263 to 264 °C; that for `CCOC(=O)COc1cccc2c1CCc1sc(S(=O)(=O)C(c3ccccc3)c3ccccc3)nc1-2` was 184 to 187 °C.
The value for `Cc1cc(-c2noc(C(F)F)n2)cc(C)c1OCCCc1cncs1` was 78 to 80 °C; that for `O=C(O)c1ccc(COCc2csc3nc(C(=O)NCc4ccnc(OCCCc5nc[nH]n5)c4)[nH]c(=O)c23)cc1` was 206 to 209 °C.
The molecule `Cc1cccc(C)c1NC(=O)c1ccc(C#N)cc1` yielded a melting point of 185 to 187 °C.
As for `CCn1cc(C(=O)O)c(=O)c2ccc(N3CCN(c4ncccn4)CC3)c(OC(F)F)c21`, the figure is over 300 °C.
In turn, `O=C(O)CN1C(=O)C(=Cc2ccc(OCc3ccc(OC(F)(F)F)cc3)c(OCc3ccccc3)c2)SC1=S` registered a melting point of 195 to 199 °C.
As for `COc1cc(N)ccc1S(=O)(=O)n1c(=O)n(C2CCCCC2)c2cc(Cl)ccc21`, the figure is 211 °C; as for `N#Cc1ccc(OCCCCCOc2ccc(-c3cc4ccc(C#N)cc4o3)cc2)cc1`, 165 to 167 °C.
The value for `CON=CC1=CCCN(C(=O)OCC(N)=O)C1` was 131 to 133 °C.
The value for `COCCNS(=O)(=O)c1ccc(Nc2nccc(-c3sc(-c4cccnc4)nc3C)n2)cc1` was 252 to 254 °C.
`CS(=O)(=O)Nc1ccc(C(CC2CCCC2)C(=O)Nc2nccs2)cc1` (configuration not stated) gave a melting point of 85 to 90 °C.
`Cn1ccc(=O)c(O)c1CC(O)c1cccnc1` (configuration not stated) yielded a melting point of 215 to 220 °C.
Take `Nc1ccc(CCc2ccc(Cl)c(Cl)c2)cc1O`: the melting point lay in the range of 147 to 149 °C.
The molecule `O=C(N1CCOCC1)n1nc2c(Cl)c(Cl)c(Cl)c(Cl)c2n1` had a melting point of 194 °C.
`Cc1nc2ccccc2c(=O)n1CCO` had a melting point of 159 to 160 °C.
The value for `CCCCCC(=O)N(CO)C1N=C(c2ccccc2)c2ccccc2N(C)C1=O` (single isomer, unassigned; (+)) was 154 to 156 °C.
As for `O=c1cc(-c2ccc3c(c2)CCCC3)[nH]c2ccccc12`, the figure is 241 to 250 °C.
For the molecule `CCS(=O)(=O)c1cc(OC)c(OC)c(C(=O)NCC2CCCN2CC2CC2)c1` (configuration not stated), the melting point fell in the range of 167 to 170 °C.
As for `Cc1ccc(C#Cc2cccc(N)c2)cc1`, the figure is 88 °C.

Source of the values: a melting point compilation (Tetko et al.; mined from patent text by program, amines drawn as free bases though some values may be those of a salt).
